Experimental data published in patent publication US20010046668A1, “Fluorescence polarization method for determining protease activity” (G.D. Searle & Co., priority 1994, published 2001).
No end group written: not given here.

Biological target: HCMV protease (also known as assemblin) encoded by UL80 (Human cytomegalovirus, UniProt P16753)
Assay: Assemblin fluorescence polarization assay: hydrolysis of biotin/DTAF peptide substrate, quenched with avidin
Assay type: biochemical, human cytomegalovirus strain AD169
Conditions: for Polarization: protease 100 nM, substrate 5 μM final, room temperature, avidin added
Experimental: The construction also encoded six additional histidine residues at the amino terminus of the protease. These additional histidine residues provided an affinity ligand by which it was purified using nickel-nitriloacetic acid-agarose (Qiagen).
The assay was performed in a buffer consisting 10 mM Phosphate buffer, pH 7.4, 20% glycerol, 150 mM sodium acetate, 0.1% CHAPS, 0.1 mM EDTA, 0.05% BSA, 2 mM NaSO3. The pH of the buffer was adjusted to 7.4 before the addition of glycerol.
The purified protease was stored as a 10 μM stock solution in 50/50 (V/V) glycerol/water, 50 μL per vial, and held at −20° C. A positive displacement pipette was used to make the 50 μL aliquots. This stock was diluted with assay buffer to 32 nM. A 100 μL aliquot of this solution was used in the enzyme reaction. A 150 μM substrate stock solution was prepared in assay buffer and stored at 4° C. in the dark. A 20 μM dilute assay stock was prepared by dilution of the 150 μM storage stock. A 5 mg/mL avidin stock solution was made by dissolving avidin (Molecular Probes) in assay buffer and stored in the refrigerator at 4° C. Roundbottom 96-well plate microtiter plates (Black MicroFluor, Dynatec) were pre-blocked with 1.0% BSA in PBS, pH 7.4, and stored at 4° C. The plates were rinsed and dried before use.
An HCMV protease (also known as assemblin) encoded by UL80, in buffer (100 nM) was added in multiple wells to rinsed and dried, pre-blocked microtiter plate. No precautions are taken to stabilize the temperature. Substrate (5 μM final concentration) was added, mixed 5 times, and incubated at room temperature. Avidin (35 μL of 5 mg/mL) was added to one group of wells after 10 minutes, to a second group of wells after 20 minutes and to the remaining wells after thirty minutes, mixed 5 times, and the polarization of the resulting mixture was measured on the FPM2 fluorescence polarimeter. The complete hydrolysis to Ser-Ala-Leu-Arg-Lys(DTAF)-NH2 gave a Pmin value of 32.1 mP.

HCMV protease (also known as assemblin) encoded by UL80, sequence (P16753 1-256): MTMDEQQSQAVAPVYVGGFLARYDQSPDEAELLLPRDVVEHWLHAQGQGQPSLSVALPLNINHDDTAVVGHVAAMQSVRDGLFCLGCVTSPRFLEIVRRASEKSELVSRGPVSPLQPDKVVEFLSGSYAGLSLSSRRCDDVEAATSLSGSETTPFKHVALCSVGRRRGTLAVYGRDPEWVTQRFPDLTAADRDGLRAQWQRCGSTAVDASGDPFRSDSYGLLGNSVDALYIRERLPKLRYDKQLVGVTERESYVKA

Biotin-γ-Abu-Gly-Val-Val-Asn-Ala-Ser-Ala-Arg-Leu-Lys(DTAF)-NH2 [Example 1]
ΔP = Pmax − P(t) (time 0 min): 0.0 mP | Polarization (time 0 min): 214.1 mP | ΔP = Pmax − P(t) (time 10 min): 47.0 mP | Polarization (time 10 min): 167.2 mP | ΔP = Pmax − P(t) (time 20 min): 77.2 mP | Polarization (time 20 min): 136.9 mP | ΔP = Pmax − P(t) (time 30 min): 99.9 mP | Polarization (time 30 min): 114.2 mP

Ser-Ala-Leu-Arg-Lys(DTAF)-NH2 (SALRK(DTAF)-NH2) [cleaved fluorescent fragment from complete hydrolysis of the assemblin substrate]
Pmin value (polarization) (complete hydrolysis of the substrate to the cleaved fluorescent fragment): 32.1 mP
